Molecules are shown by their SMILES.

Among the data in ChEMBL document CHEMBL1909046, “DrugMatrix in vitro pharmacology data” are IC50 and Ki values, retold here.

In the first experiment the target is Vasopressin V1a receptor (Homo sapiens, UniProt P37288). Note: in other assays of this panel Not Active means under 50% inhibition at 10 µM.
Vasopressin V1a receptor, sequence (P37288 whole entry): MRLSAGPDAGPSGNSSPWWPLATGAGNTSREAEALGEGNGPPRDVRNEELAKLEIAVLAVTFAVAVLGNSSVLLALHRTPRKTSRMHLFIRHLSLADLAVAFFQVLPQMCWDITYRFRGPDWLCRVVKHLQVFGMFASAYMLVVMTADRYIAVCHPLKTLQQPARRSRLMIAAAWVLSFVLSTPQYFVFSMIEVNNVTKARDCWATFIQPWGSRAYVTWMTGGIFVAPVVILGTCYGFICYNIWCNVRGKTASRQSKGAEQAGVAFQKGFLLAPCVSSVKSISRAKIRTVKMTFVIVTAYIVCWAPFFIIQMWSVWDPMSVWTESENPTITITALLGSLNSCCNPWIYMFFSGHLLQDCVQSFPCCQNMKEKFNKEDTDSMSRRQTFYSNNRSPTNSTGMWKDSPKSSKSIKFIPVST
Experiment: not given
The class given is cell membranes, Membrane. Conditions: hek293.
Turning to `CN1[C@@H]2CC[C@H]1C[C@@H](OC(=O)c1c[nH]c3ccccc13)C2` [TROPISETRON], the IC50 entry is listed as “Not Active”.

With `COC(=O)c1ccc(O)cc1` [METHYLPARABEN], the IC50 result is given as “Not Active”.

Take `c1ccc2[nH]c(-c3cscn3)nc2c1` [THIABENDAZOLE]: the IC50 result is reported as “Not Active”.

A further experiment deals with Mitogen-activated protein kinase 1 (Homo sapiens, UniProt P28482). The experiment is described as follows: DRUGMATRIX: Protein Serine/Threonine Kinase, ERK2 enzyme inhibition (substrate: Myelin Basic Protein). Details: species or system Escherichia coli. Conditions: Not Active = under 50% inhibition at 10 µM.
Mitogen-activated protein kinase 1, sequence (P28482 whole entry): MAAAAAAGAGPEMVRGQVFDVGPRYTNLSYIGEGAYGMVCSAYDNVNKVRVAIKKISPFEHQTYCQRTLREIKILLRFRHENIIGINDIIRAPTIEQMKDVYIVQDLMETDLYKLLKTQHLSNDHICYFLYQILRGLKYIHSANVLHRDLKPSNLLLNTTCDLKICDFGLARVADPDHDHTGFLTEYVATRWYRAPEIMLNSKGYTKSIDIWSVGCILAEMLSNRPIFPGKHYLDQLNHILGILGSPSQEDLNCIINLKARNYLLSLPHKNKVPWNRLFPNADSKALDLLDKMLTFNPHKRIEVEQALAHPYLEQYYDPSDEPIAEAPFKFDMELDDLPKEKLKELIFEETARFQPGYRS
Regarding `CN1[C@@H]2CC[C@H]1C[C@@H](OC(=O)c1c[nH]c3ccccc13)C2` [TROPISETRON], the IC50 entry is given as “Not Active”.

For `COC(=O)c1ccc(O)cc1` [METHYLPARABEN], the IC50 result is “Not Active”.

Consider `c1ccc2[nH]c(-c3cscn3)nc2c1` [THIABENDAZOLE], for which the IC50 result is recorded as “Not Active”.

Another experiment deals with T1, Cysteinyl leukotriene receptor 1 (Homo sapiens, UniProt Q9Y271).
T1 sequence (Q9Y271 whole entry): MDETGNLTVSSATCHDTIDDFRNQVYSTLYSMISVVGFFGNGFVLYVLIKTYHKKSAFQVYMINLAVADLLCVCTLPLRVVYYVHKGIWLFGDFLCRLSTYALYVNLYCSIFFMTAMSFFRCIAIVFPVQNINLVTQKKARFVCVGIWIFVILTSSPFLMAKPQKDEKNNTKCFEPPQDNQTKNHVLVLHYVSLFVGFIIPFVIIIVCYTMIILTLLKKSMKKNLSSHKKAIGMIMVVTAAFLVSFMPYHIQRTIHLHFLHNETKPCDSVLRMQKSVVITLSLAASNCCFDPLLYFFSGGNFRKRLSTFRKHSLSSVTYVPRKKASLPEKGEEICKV
Experiment: not given
To be noted: cho-k1. The class given is cell membranes, CHO-K1, Membrane.
Take `CN1[C@@H]2CC[C@H]1C[C@@H](OC(=O)c1c[nH]c3ccccc13)C2` [TROPISETRON]: the IC50 result is given as “Not Active”.

As for `COC(=O)c1ccc(O)cc1` [METHYLPARABEN], the IC50 entry is listed as “Not Active”.

With `c1ccc2[nH]c(-c3cscn3)nc2c1` [THIABENDAZOLE], the IC50 entry was “Not Active”.

The target in a further experiment is T2, C-C chemokine receptor type 4 (Homo sapiens, UniProt P51679). Note: in other assays of this panel Not Active means under 50% inhibition at 10 µM.
T2 sequence (P51679 whole entry): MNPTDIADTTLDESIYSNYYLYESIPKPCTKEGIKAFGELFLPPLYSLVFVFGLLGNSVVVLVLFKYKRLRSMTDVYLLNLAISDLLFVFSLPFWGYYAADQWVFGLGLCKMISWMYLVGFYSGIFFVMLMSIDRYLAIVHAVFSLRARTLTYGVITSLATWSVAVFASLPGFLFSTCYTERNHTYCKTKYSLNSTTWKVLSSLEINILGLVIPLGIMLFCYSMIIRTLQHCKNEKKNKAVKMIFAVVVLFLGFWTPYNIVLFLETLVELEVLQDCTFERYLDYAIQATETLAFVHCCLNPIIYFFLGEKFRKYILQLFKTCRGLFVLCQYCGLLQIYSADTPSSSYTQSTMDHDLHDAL
Experiment: not given
The class given is cell membranes, Membrane. Conditions: chem-1.
Turning to `CN1[C@@H]2CC[C@H]1C[C@@H](OC(=O)c1c[nH]c3ccccc13)C2` [TROPISETRON], the IC50 result was “Not Active”.

As to `COC(=O)c1ccc(O)cc1` [METHYLPARABEN], the IC50 entry is “Not Active”.

As to `c1ccc2[nH]c(-c3cscn3)nc2c1` [THIABENDAZOLE], the IC50 entry is “Not Active”.

The target in another experiment is T3, Adenosine receptor A3 (Homo sapiens, UniProt P0DMS8).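 Note: radioligand binding assay with AB-MECA serving as the labeled ligand; in other assays of this panel Not Active means under 50% inhibition at 10 µM.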
T3 sequence (P0DMS8 whole entry): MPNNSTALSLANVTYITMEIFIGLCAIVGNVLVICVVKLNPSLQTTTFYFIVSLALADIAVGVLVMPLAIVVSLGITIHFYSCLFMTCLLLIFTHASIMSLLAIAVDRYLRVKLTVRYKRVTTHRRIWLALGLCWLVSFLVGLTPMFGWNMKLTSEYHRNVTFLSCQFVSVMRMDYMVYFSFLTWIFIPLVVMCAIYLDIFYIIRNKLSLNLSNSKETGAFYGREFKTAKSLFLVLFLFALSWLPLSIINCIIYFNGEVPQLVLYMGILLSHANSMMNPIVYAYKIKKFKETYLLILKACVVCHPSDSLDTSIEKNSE
Experiment: not given
The class given is cell membranes, CHO-K1, Membrane. To be noted: cho-k1.
For `CN1[C@@H]2CC[C@H]1C[C@@H](OC(=O)c1c[nH]c3ccccc13)C2` [TROPISETRON], the IC50 entry was “Not Active”.

For the compound `COC(=O)c1ccc(O)cc1` [METHYLPARABEN], the IC50 result is recorded as “Not Active”.

Take `c1ccc2[nH]c(-c3cscn3)nc2c1` [THIABENDAZOLE]: the IC50 result is on record as “Not Active”.

System in a further experiment: not listed separately
As to the kind of experiment: DRUGMATRIX: Glutamate, NMDA, Agonism radioligand binding (ligand: [3H] CGP-39653). The class given is cell membranes, Rattus norvegicus, Wistar, Cerebral cortex, Membrane. Conditions: Not Active = under 50% inhibition at 10 µM.
Turning to `CN1[C@@H]2CC[C@H]1C[C@@H](OC(=O)c1c[nH]c3ccccc13)C2` [TROPISETRON], the IC50 entry was “Not Active” and the Ki result is recorded as “Not Active”.

For the compound `COC(=O)c1ccc(O)cc1` [METHYLPARABEN], the IC50 entry is on record as “Not Active” and the Ki entry is “Not Active”.

As for `c1ccc2[nH]c(-c3cscn3)nc2c1` [THIABENDAZOLE], the IC50 result is “Not Active” and the Ki result is “Not Active”.

System in another experiment: not listed separately
As to the kind of experiment: DRUGMATRIX: Phorbol Ester radioligand binding (ligand: [3H] PDBu). The class given is cell membranes, Mus musculus, ICR, Brain, Membrane. Conditions: Not Active = under 50% inhibition at 10 µM.
`CN1[C@@H]2CC[C@H]1C[C@@H](OC(=O)c1c[nH]c3ccccc13)C2` [TROPISETRON]: the IC50 result is recorded as “Not Active” and the Ki entry is on record as “Not Active”.

`COC(=O)c1ccc(O)cc1` [METHYLPARABEN]: the IC50 result was “Not Active” and the Ki entry is “Not Active”.

On to `c1ccc2[nH]c(-c3cscn3)nc2c1` [THIABENDAZOLE], for which the IC50 entry was “Not Active” and the Ki result was “Not Active”.

The target of the next experiment is T4, Interstitial collagenase (Homo sapiens, UniProt P03956).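 Note: MMP-1 enzyme inhibition assay using a peptide substrate; in other assays of this panel Not Active means under 50% inhibition at 10 µM.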
T4 sequence (P03956 whole entry): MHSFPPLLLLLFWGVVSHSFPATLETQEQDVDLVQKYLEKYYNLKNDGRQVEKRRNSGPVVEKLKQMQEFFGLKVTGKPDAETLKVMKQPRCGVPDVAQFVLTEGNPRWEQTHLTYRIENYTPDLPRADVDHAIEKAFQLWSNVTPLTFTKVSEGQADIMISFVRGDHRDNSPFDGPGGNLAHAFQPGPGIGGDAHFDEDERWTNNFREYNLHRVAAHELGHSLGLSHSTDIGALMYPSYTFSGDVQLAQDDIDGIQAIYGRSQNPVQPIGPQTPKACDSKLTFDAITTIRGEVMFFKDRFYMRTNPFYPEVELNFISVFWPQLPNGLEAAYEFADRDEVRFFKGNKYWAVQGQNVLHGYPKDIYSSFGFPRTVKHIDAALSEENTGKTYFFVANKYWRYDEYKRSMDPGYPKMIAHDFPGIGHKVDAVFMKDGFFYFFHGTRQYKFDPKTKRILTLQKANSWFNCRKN
Experiment: not given
The class given is tissue-based, Rheumatoid synovial fibroblasts.
Settings: not given
As to `CN1[C@@H]2CC[C@H]1C[C@@H](OC(=O)c1c[nH]c3ccccc13)C2` [TROPISETRON], the IC50 entry is reported as “Not Active”.

For `COC(=O)c1ccc(O)cc1` [METHYLPARABEN], the IC50 result is recorded as “Not Active”.

As for `c1ccc2[nH]c(-c3cscn3)nc2c1` [THIABENDAZOLE], the IC50 result is listed as “Not Active”.

For another experiment, the target named is T5, C-X-C chemokine receptor type 2 (Homo sapiens, UniProt P25025). Note: in other assays of this panel Not Active means under 50% inhibition at 10 µM.
T5 sequence (P25025 whole entry): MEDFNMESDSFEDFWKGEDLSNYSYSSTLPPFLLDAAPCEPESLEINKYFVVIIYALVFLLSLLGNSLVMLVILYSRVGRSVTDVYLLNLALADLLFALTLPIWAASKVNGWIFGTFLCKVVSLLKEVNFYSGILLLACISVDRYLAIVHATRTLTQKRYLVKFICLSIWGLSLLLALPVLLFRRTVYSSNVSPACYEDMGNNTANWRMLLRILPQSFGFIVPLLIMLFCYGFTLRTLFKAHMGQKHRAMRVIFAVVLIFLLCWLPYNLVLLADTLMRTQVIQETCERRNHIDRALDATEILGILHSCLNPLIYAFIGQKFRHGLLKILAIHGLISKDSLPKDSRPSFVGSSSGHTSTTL
Experiment: not given
The class given is cell membranes, Membrane. To be noted: cho-k1.
For `CN1[C@@H]2CC[C@H]1C[C@@H](OC(=O)c1c[nH]c3ccccc13)C2` [TROPISETRON], the IC50 result is reported as “Not Active”.

As for `COC(=O)c1ccc(O)cc1` [METHYLPARABEN], the IC50 result is “Not Active”.

Consider `c1ccc2[nH]c(-c3cscn3)nc2c1` [THIABENDAZOLE], for which the IC50 entry is listed as “Not Active”.

The target of a further experiment is T6, Neuropeptide Y receptor type 1 (Homo sapiens, UniProt P25929). Note: in other assays of this panel Not Active means under 50% inhibition at 10 µM.
T6 sequence (P25929 whole entry): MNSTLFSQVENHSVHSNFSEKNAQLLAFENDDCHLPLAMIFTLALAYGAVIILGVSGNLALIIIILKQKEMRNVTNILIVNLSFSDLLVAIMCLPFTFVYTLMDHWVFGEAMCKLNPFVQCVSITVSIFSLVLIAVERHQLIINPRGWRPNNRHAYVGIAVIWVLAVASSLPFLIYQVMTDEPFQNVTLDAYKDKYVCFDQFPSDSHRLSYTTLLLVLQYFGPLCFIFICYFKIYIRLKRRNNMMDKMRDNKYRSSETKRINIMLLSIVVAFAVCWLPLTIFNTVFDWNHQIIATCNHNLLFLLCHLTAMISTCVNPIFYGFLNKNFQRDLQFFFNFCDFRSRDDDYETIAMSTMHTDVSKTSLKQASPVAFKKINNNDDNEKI
Experiment: not given
To be noted: sk-n-mc. The class given is cell membranes, Membrane.
With `CN1[C@@H]2CC[C@H]1C[C@@H](OC(=O)c1c[nH]c3ccccc13)C2` [TROPISETRON], the IC50 result is on record as “Not Active”.

`COC(=O)c1ccc(O)cc1` [METHYLPARABEN]: the IC50 result was “Not Active”.

As for `c1ccc2[nH]c(-c3cscn3)nc2c1` [THIABENDAZOLE], the IC50 result was “Not Active”.

System in another experiment: not listed separately
As to the kind of experiment: DRUGMATRIX: Glutamate, NMDA, Phencyclidine radioligand binding (ligand: [3H] TCP). The class given is cell membranes, Rattus norvegicus, Wistar, Cerebral cortex, Membrane. To be noted: Not Active = under 50% inhibition at 10 µM.
`CN1[C@@H]2CC[C@H]1C[C@@H](OC(=O)c1c[nH]c3ccccc13)C2` [TROPISETRON]: the IC50 result was “Not Active” and the Ki result was “Not Active”.

Take `COC(=O)c1ccc(O)cc1` [METHYLPARABEN]: the IC50 result is given as “Not Active” and the Ki result is recorded as “Not Active”.

`c1ccc2[nH]c(-c3cscn3)nc2c1` [THIABENDAZOLE]: the IC50 entry was “Not Active” and the Ki entry is “Not Active”.

The target of the next experiment is T7, Leukotriene C4 synthase (Cavia porcellus, UniProt A6XA80).
T7 sequence (A6XA80 whole entry): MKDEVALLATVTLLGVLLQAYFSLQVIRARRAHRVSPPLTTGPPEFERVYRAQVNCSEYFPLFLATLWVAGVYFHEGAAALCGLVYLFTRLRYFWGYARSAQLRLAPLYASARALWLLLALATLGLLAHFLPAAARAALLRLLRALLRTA
The experiment is described as follows: biochemical.
Settings: not given
The class given is tissue-based, Lung.
In the case of `CN1[C@@H]2CC[C@H]1C[C@@H](OC(=O)c1c[nH]c3ccccc13)C2` [TROPISETRON], the IC50 entry is “Not Active”.

As to `COC(=O)c1ccc(O)cc1` [METHYLPARABEN], the IC50 entry is “Not Active”.

With `c1ccc2[nH]c(-c3cscn3)nc2c1` [THIABENDAZOLE], the IC50 entry is reported as “Not Active”.
